We go through 24 compounds from patent US20130261108A1, “COMPOSITIONS AND METHODS FOR MODULATING FARNESOID X RECEPTORS” (IRM LLC, priority 2010, published 2013).

Each structure is given as a SMILES string.

For the test, the target named is T1, human Farnesoid X Receptor (FXR) ligand binding domain (Homo sapiens, UniProt Q96RI1).
T1 construct: purchased Invitrogen
T1 sequence (Q96RI1 193-472 isoform Q96RI1-2): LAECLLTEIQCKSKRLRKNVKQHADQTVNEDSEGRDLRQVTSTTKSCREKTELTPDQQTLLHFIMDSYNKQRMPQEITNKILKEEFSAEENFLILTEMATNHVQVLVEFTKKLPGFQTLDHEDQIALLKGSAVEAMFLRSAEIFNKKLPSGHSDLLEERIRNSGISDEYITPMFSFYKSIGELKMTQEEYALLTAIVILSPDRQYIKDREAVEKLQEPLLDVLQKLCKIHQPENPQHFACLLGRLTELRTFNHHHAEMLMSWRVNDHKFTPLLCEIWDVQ
The test can be described thus: Human GST-FXR LBD co-activator interaction assay (FXR HTRF assay). Format: biochemical. Conditions: GST-FXR LBD with biotin-labeled SRC-1 peptide, FRET/HTRF, 2.5 hours at room temperature; response relative to GW4064; read-out: FXR coactivator interaction assay (HTRF) (EC50). From the text: Human GST-FXR LBD Co-Activator Interaction Assay.
The FXR HTRF assay is a biochemical assay measuring the interaction between FXR and a coactivator protein (SRC1). The ligand-induced interaction with a coactivator protein is a critical step in transcriptional activation by FXR. Thus, this is an assay designed to measure FXR agonist activity of compounds.
The ligand-dependent interaction between GST-FXR LBD and a peptide derived from Steroid Receptor Coactivator-1 (SRC-1) was monitored by Fluorescence Resonance Energy Transfer (FRET). […] Test compounds (in DMSO solution) and detection reagents (anti-GST-Cryptate labeled antibody and Streptavidin-XL665 conjugate; CisBio) were added in assay buffer containing 50 mM KF. Plates are incubated at room temperature in the dark for 2.5 hours before reading on an Envision (PerkinElmer) at 665 nm and 590 nm.
A negative control (without Streptavidin-XL665) was run with each assay and represented the background fluorescence. A reference FXR agonist, GW4064, was included in each experiment as positive control. The efficacy of each test compound was compared to that of GW4064. At each concentration, the relative activity of the test compound was expressed as Response %=(Rsample−RDMSO)/(Rpositive−RDMSO), where Rsample is the HTRF response (expressed in Delta F %) for the test compound, Rpositive is the maximal response for GW4064 at saturating concentrations, and RDMSO is the response for DMSO control. The EC50 values were calculated using GraphPad Prism (GraphPad Software) using non-linear regression curve fit (log(agonist) vs. response−variable slope (four parameters)).
On the technique in general: In TR-FRET formats the signal depends on donor and acceptor labels being close together.

For the compound `O=C(O)c1ccc2nc(N3CCC(OCc4c(C5CCCCC5C(F)(F)F)noc4C4CC4)CC3)sc2c1` (single isomer, unassigned) [5 (Diastereomer A)], the EC50 (in general, the concentration giving half of the maximal effect) is 0.245 µM.

As to `O=C(O)c1ccc2nc(N3CCC(OCc4c(C5CCCCC5C(F)(F)F)noc4C4CC4)CC3)sc2c1` (single isomer, unassigned) [5 (Diastereomer B)], the concentration for a half-maximal effect (EC50) came out at 0.064 µM.

Take `CCOC(=O)c1ccc2nc(N3CCC(OCc4c(-c5ccccc5OC(F)(F)F)noc4C4CC4)CC3)sc2c1` [Example 1-1A, Ethyl 2-(4-((5-cyclopropyl-3-(2-(trifluoromethoxy)phenyl)isoxazol-4-yl)methoxy)piperidin-1-yl)benzo[d]thiazole-6-carboxylate]: the EC50 turned out to be 0.929 µM.

For `COc1cc(C(=O)O)cc2sc(N3CCC(OCc4c(-c5ccccc5OC(F)(F)F)noc4C4CC4)CC3)nc12` [Example 1-2, 2-(4-((5-cyclopropyl-3-(2-(trifluoromethoxy)phenyl)isoxazol-4-yl)methoxy)piperidin-1-yl)-4-methoxybenzo[d]thiazole-6-carboxylic acid], the concentration giving a half-maximal response (EC50) came out at 0.012 µM.

`O=C(O)c1cc(F)c2nc(N3CCC(OCc4c(-c5ccccc5OC(F)(F)F)noc4C4CC4)CC3)sc2c1` [Example 1-3, 2-(4-((5-cyclopropyl-3-(2-(trifluoromethoxy)phenyl)isoxazol-4-yl)methoxy)piperidin-1-yl)-4-fluorobenzo[d]thiazole-6-carboxylic acid]: the concentration giving a half-maximal response (EC50) came out at 0.017 µM.

In the case of `COc1cc(C(=O)O)cc2sc(N3CCC(OCc4c(-c5ccccc5C(F)(F)F)noc4C4CC4)CC3)nc12` [Example 1-4, 2-(4-((5-cyclopropyl-3-(2-(trifluoromethyl)phenyl)isoxazol-4-yl)methoxy)piperidin-1-yl)-4-methoxybenzo[d]thiazole-6-carboxylic acid], the half-maximal effective concentration (EC50) turned out to be 0.004 µM.

Consider `O=C(O)c1ccc2sc(N3CCC(OCc4c(-c5ccccc5OC(F)(F)F)noc4C4CC4)CC3)nc2c1` [Example 2-1, 2-[4-({5-cyclopropyl-3-[2-(trifluoromethoxy)phenyl]-1,2-oxazol-4-yl}methoxy)piperidin-1-yl]1,3-benzothiazole-5-carboxylic acid], for which the concentration for a half-maximal effect (EC50) was found to be 0.062 µM.

In the case of `CCOC(=O)c1ccc2nc(N3CCC(OCc4c(-c5ccccc5OC(F)(F)F)noc4C4(C)CC4)CC3)sc2c1` [Example 2-2A, ethyl 2-(4-{[5-(1-methylcyclopropyl)-3-[2-(trifluoromethoxy)phenyl]-1,2-oxazol-4-yl]methoxy}piperidin-1-yl)-1,3-benzothiazole-6-carboxylate], the 50% effective concentration (EC50) worked out at 1.18 µM.

Consider `CC1(c2onc(-c3ccccc3OC(F)(F)F)c2COC2CCN(c3nc4ccc(C(=O)O)cc4s3)CC2)CC1` [Example 2-2B, 2-(4-{[5-(1-methylcyclopropyl)-3-[2-(trifluoromethoxy)phenyl]-1,2-oxazol-4-yl]methoxy}piperidin-1-yl)-1,3-benzothiazole-6-carboxylic acid], for which the EC50 was 0.098 µM.

For `Cc1cc(C(=O)O)cc2sc(N3CCC(OCc4c(-c5ccccc5OC(F)(F)F)noc4C4CC4)CC3)nc12` [Example 2-3, 2-[4-({5-cyclopropyl-3-[2-(trifluoromethoxy)phenyl]-1,2-oxazol-4-yl}methoxy)piperidin-1-yl]-4-methyl-1,3-benzothiazole-6-carboxylic acid], the half-maximal effective concentration (EC50) is 0.024 µM.

For `O=C(O)c1cc(OC(F)(F)F)c2nc(N3CCC(OCc4c(-c5ccccc5OC(F)(F)F)noc4C4CC4)CC3)sc2c1` [Example 2-4, 2-[4-({5-cyclopropyl-3-[2-(trifluoromethoxy)phenyl]-1,2-oxazol-4-yl}methoxy)piperidin-1-yl]-4-(trifluoromethoxy)-1,3-benzothiazole-6-carboxylic acid], the 50% effective concentration (EC50) turned out to be 0.005 µM.

Regarding `CCOC(=O)c1ccc2nc(N3CCC(OCc4c(-c5ccccc5C(F)(F)F)noc4C4CC4)CC3)sc2c1` [Example 2-5A, ethyl 2-[4-({5-cyclopropyl-3-[2-(trifluoromethyl)phenyl]-1,2-oxazol-4-yl}methoxy)piperidin-1-yl]-1,3-benzothiazole-6-carboxylate], the concentration giving a half-maximal response (EC50) came to 0.761 µM.

On to `O=C(O)c1ccc2nc(N3CCC(OCc4c(-c5ccccc5C(F)(F)F)noc4C4CC4)CC3)sc2c1` [Example 2-5B, 2-[4-({5-cyclopropyl-3-[2-(trifluoromethyl)phenyl]-1,2-oxazol-4-yl}methoxy)piperidin-1-yl]-1,3-benzothiazole-6-carboxylic acid], for which the EC50 is 0.086 µM.

As for `CCOC(=O)c1ccc2nc(N3CCC(OCc4c(-c5c(Cl)cccc5C(F)(F)F)noc4C4CC4)CC3)sc2c1` [Example 2-6A, ethyl 2-[4-({3-[2-chloro-6-(trifluoromethyl)phenyl]-5-cyclopropyl-1,2-oxazol-4-yl}methoxy)piperidin-1-yl]-1,3-benzothiazole-6-carboxylate], the EC50 worked out at 0.396 µM.

For `O=C(O)c1ccc2nc(N3CCC(OCc4c(-c5c(Cl)cccc5C(F)(F)F)noc4C4CC4)CC3)sc2c1` [Example 2-6B, 2-[4-({3-[2-chloro-6-(trifluoromethyl)phenyl]-5-cyclopropyl-1,2-oxazol-4-yl}methoxy)piperidin-1-yl]-1,3-benzothiazole-6-carboxylic acid], the EC50 turned out to be 0.198 µM.

For the compound `CCOC(=O)c1ccc2nc(N3CCC(OCc4c(-c5c(OC)cccc5C(F)(F)F)noc4C4CC4)CC3)sc2c1` [Example 2-7A, ethyl 2-[4-({5-cyclopropyl-3-[2-methoxy-6-(trifluoromethyl)phenyl]-1,2-oxazol-4-yl}methoxy)piperidin-1-yl]-1,3-benzothiazole-6-carboxylate], the EC50 turned out to be 0.736 µM.

On to `COc1cccc(C(F)(F)F)c1-c1noc(C2CC2)c1COC1CCN(c2nc3ccc(C(=O)O)cc3s2)CC1` [Example 2-7B, 2-[4-({5-cyclopropyl-3-[2-methoxy-6-(trifluoromethyl)phenyl]-1,2-oxazol-4-yl}methoxy)piperidin-1-yl]-1,3-benzothiazole-6-carboxylic acid], for which the 50% effective concentration (EC50) amounted to 0.075 µM.

As for `CCOC(=O)c1ccc2nc(N3CCC(OCc4c(-c5ccccc5OC(F)F)noc4C4CC4)CC3)sc2c1` [Example 2-8A, ethyl 2-[4-({5-cyclopropyl-3-[2-(difluoromethoxy)phenyl]-1,2-oxazol-4-yl}methoxy)piperidin-1-yl]-1,3-benzothiazole-6-carboxylate], the EC50 came out at 2.42 µM.

As for `O=C(O)c1ccc2nc(N3CCC(OCc4c(-c5ccccc5OC(F)F)noc4C4CC4)CC3)sc2c1` [Example 2-8B, 2-[4-({5-cyclopropyl-3-[2-(difluoromethoxy)phenyl]-1,2-oxazol-4-yl}methoxy)piperidin-1-yl]-1,3-benzothiazole-6-carboxylic acid], the half-maximal effective concentration (EC50) stood at 0.045 µM.

For the compound `Cc1cc(C(=O)O)cc2sc(N3CCC(OCc4c(-c5ccccc5OC(F)F)noc4C4CC4)CC3)nc12` [Example 2-9, 2-[4-({5-cyclopropyl-3-[2-(difluoromethoxy)phenyl]-1,2-oxazol-4-yl}methoxy)piperidin-1-yl]-4-methyl-1,3-benzothiazole-6-carboxylic acid], the EC50 came out at 0.026 µM.

For `O=C(O)c1cc(F)c2nc(N3CCC(OCc4c(-c5ccccc5OC(F)F)noc4C4CC4)CC3)sc2c1` [Example 2-10, 2-[4-({5-cyclopropyl-3-[2-(difluoromethoxy)phenyl]-1,2-oxazol-4-yl}methoxy)piperidin-1-yl]-4-fluoro-1,3-benzothiazole-6-carboxylic acid], the concentration for a half-maximal effect (EC50) was 0.021 µM.

Consider `CCOC(=O)c1ccc2nc(N3CCC(OCc4c(-c5c(F)cccc5Cl)noc4C4CC4)CC3)sc2c1` [Example 2-11A, ethyl 2-(4-{[3-(2-chloro-6-fluorophenyl)-5-cyclopropyl-1,2-oxazol-4-yl]methoxy}piperidin-1-yl)-1,3-benzothiazole-6-carboxylate], for which the EC50 came out at 0.557 µM.

As for `O=C(O)c1ccc2nc(N3CCC(OCc4c(-c5c(F)cccc5Cl)noc4C4CC4)CC3)sc2c1` [Example 2-12B, 2-(4-{[3-(2-chloro-6-fluorophenyl)-5-cyclopropyl-1,2-oxazol-4-yl]methoxy}piperidin-1-yl)-1,3-benzothiazole-6-carboxylic acid], the EC50 is 0.057 µM.

Take `O=C(O)c1ccc2nc(N3CCC(OCc4c(-c5c(Cl)cccc5Cl)noc4C4CC4)CC3)sc2c1` [Example 2-13, 2-(4-{[5-cyclopropyl-3-(2,6-dichlorophenyl)-1,2-oxazol-4-yl]methoxy}piperidin-1-yl)-1,3-benzothiazole-6-carboxylic acid]: the concentration giving a half-maximal response (EC50) was found to be 0.01 µM.
